Results taken from patent US11186554B2, “Non-fused tricyclic compounds” (VIVACE THERAPEUTICS, INC., priority 2017, dated 2021).

tested on: firefly luciferase activity; test: Dual-Glo firefly/renilla luciferase reporter assay in cells; type: cell-based; conditions: 24 h, read-out: Firefly Luciferase IC50 (μM)

Compound	IC50 [µM]
OCCn1nnc(-c2ccccc2Nc2ccc(SC(F)F)cc2)n1 [Compound 31, 2-[5-[2-[4-(difluoromethylsulfanyl)anilino]phenyl]tetrazol-2-yl]ethanol]	0.1 to 1
CNC(=O)Cn1nnc(-c2ccccc2Nc2ccc(OC(F)(F)F)cc2)n1 [Compound 46, N-methyl-2-[5-[2-[4-(trifluoromethoxy)anilino]phenyl]tetrazol-2-yl]acetamide]	0.1 to 1
COc1ccc(Nc2ccc(C(F)(F)F)cc2)c(-c2nnn(CCO)n2)c1 [Compound 240, 2-[5-[5-methoxy-2-[4-(trifluoromethyl)anilino]phenyl]tetrazol-2-yl]ethanol]	< 0.1
OCCn1nnc(-c2ccccc2Nc2ccccc2F)n1 [Compound 36, 2-(5-(2-((2-fluorophenyl)amino)phenyl)-2H-tetrazol-2-yl)ethanol]	1 to 5
Cc1ccc(Nc2ccc(C(F)(F)F)cc2)c(-c2nnn(CCO)n2)c1 [Compound 242, 2-(5-(5-methyl-2-((4-(trifluoromethyl)phenyl)amino)phenyl)-2H-tetrazol-2-yl)ethanol]	< 0.1
CCc1ccc(Nc2ccccc2-c2nnn(CCO)n2)cc1 [Compound 9, 2-[5-[2-(4-ethylanilino)phenyl]tetrazol-2-yl]ethanol]	0.1 to 1
OCCn1nnc(-c2ccccc2Nc2ccc(Br)cc2)n1 [Compound 207, 2-(5-(2-((4-bromophenyl)amino)phenyl)-2H-tetrazol-2-yl)ethan-1-01]	0.1 to 1
OCCn1nnc(-c2cc(OC(F)F)ccc2Nc2ccc(C(F)(F)F)cc2)n1 [Compound 260, 2-(5-(5-(difluoromethoxy)-2-((4-(trifluoromethyl)phenyl)amino)phenyl)-2H-tetrazol-2-yl)ethanol]	< 0.1

same assay, conditions: 24 hrs compound treatment, starting from 3 uM, 1:3 dilution, 10 points; read-out: Firefly Luciferase IC50

Compound	IC50 [µM]
OCC(O)Cn1nnc(-c2ccccc2Nc2ccc(C(F)(F)F)cc2)n1 (centres unmarked) [Compound 114, 3-(5-(2-((4-(trifluoromethyl)phenyl)amino)phenyl)-2H-tetrazol-2-yl)propane-1,2-diol]	< 0.1
OC1(Cn2nnc(-c3ccccc3Nc3ccc(C(F)(F)F)cc3)n2)CCNC1 (centres unmarked) [Compound 153, 3-((5-(2-((4-(trifluoromethyl)phenyl)amino)phenyl)-2H-tetrazol-2-yl)methyl)pyrrolidin-3-ol]	0.1 to 1
FC(F)(F)Oc1ccc(Nc2ccccc2-c2nnn(Cc3cccnc3)n2)cc1 [Compound 51, 2-[2-(3-pyridylmethyl)tetrazol-5-yl]-N-[4-(trifluoromethoxy)phenyl]aniline]	1 to 5
OCCn1nnc(-c2cc(C(F)F)ccc2Nc2ccc(C(F)(F)F)cc2)n1 [Compound 266, 2-[5-[5-(difluoromethyl)-2-[4-(trifluoromethyl)anilino]phenyl]tetrazol-2-yl]ethanol]	0.1 to 1
NS(=O)(=O)NCCn1nnc(-c2ccccc2Nc2ccc(C(F)(F)F)cc2)n1 [Compound 99, 2-[2-(sulfamoylamino)ethyl]-5-[2-[4-(trifluoromethyl)anilino]phenyl]tetrazole]	1 to 5
OCCn1nnc(-c2ccccc2Nc2ccc(F)c(F)c2)n1 [Compound 25, 2-[5-[2-(3,4-difluoroanilino)phenyl]tetrazol-2-yl]ethanol]	0.1 to 1
Cc1nn(CCO)cc1-c1ccccc1Nc1ccc(C(F)(F)F)cc1 [Compound 83, 2-[3-methyl-4-[2-[4-(trifluoromethyl)anilino]phenyl]pyrazol-1-yl]ethanol]	1 to 5
CC(=O)N1CCCC(O)(Cn2nnc(-c3ccccc3Nc3ccc(C(F)(F)F)cc3)n2)C1 (centres unmarked) [Compound 155, 1-(3-hydroxy-3-((5-(2-((4-(trifluoromethyl)phenyl)amino)phenyl)-2H-tetrazol-2-yl)methyl)piperidin-1-yl) Ethanone]	0.1 to 1
CC(C)C(=O)Cn1nnc(-c2ccccc2Nc2ccc(C(F)(F)F)cc2)n1 [Compound 128, 3-methyl-1-[5-[2-[4-(trifluoromethyl)anilino]phenyl]tetrazol-2-yl]butan-2-one]	0.1 to 1
O[C@H]1CNC[C@@H]1n1nnc(-c2ccccc2Nc2ccc(C(F)(F)F)cc2)n1 [Compound 234, (3S,4S)-4-(5-(2-((4-(trifluoromethyl)phenyl)amino)phenyl)-2H-tetrazol-2-yl)pyrrolidin-3-ol]	0.1 to 1
Cc1c(-c2ccccc2Nc2ccc(C(F)(F)F)cc2)cnn1CCO [Compound 84, 2-[5-methyl-4-[2-[4-(trifluoromethyl)anilino]phenyl]pyrazol-1-yl]ethanol]	1 to 5
CC(C)(O)Cn1nnc(-c2ccccc2Nc2ccc(C(F)(F)F)cc2)n1 [Compound 106]	< 0.1
FC(F)(F)c1ccc(Nc2ccccc2-c2nnn(C3CCOC3)n2)cc1 (centres unmarked) [Compound 119, 2-(2-(tetrahydrofuran-3-yl)-2H-tetrazol-5-yl)-N-(4-(trifluoromethyl)phenyl) Aniline]	< 0.1
NS(=O)(=O)Cn1nnc(-c2ccccc2Nc2ccc(C(F)(F)F)cc2)n1 [Compound 101, (5-(2-((4-(trifluoromethyl)phenyl)amino)phenyl)-2H-tetrazol-2-yl)methane sulfonamide]	0.1 to 1
NCC(CO)n1nnc(-c2ccccc2Nc2ccc(C(F)(F)F)cc2)n1 (centres unmarked) [Compound 259, 3-amino-2-(5-(2-((4-(trifluoromethyl)phenyl)amino)phenyl)-2H-tetrazol-2-yl)propan-1-ol]	0.1 to 1
CNC(=O)Cn1nnc(-c2ccccc2Nc2ccc(C(F)(F)F)cc2)n1 [Compound 42, N-methyl-2-[5-[2-[4-(trifluoromethyl)anilino]phenyl]tetrazol-2-yl]acetamide]	< 0.1
CCOC(=O)Cn1cc(-c2ccccc2Nc2cccc(C(F)(F)F)c2)cn1 [Compound 58, ethyl 2-(4-(2-((3-(trifluoromethyl)phenyl)amino)phenyl)-1H-pyrazol-1-yl)acetate]	0.1 to 1
CC(=O)NCCCn1nnc(-c2ccccc2Nc2ccc(C(F)(F)F)cc2)n1 [Compound 111, N-[3-[5-[2-[4-(trifluoromethyl)anilino]phenyl]tetrazol-2-yl]propyl]acetamide]	0.1 to 1
OC1(Cn2nnc(-c3ccccc3Nc3ccc(C(F)(F)F)cc3)n2)CSC1 [Compound 244, 3-[[5-[2-[4-(trifluoromethyl)anilino]phenyl]tetrazol-2-yl]methyl]thietan-3-ol]	< 0.1
OC1(Cn2nnc(-c3ccccc3Nc3ccc(C(F)(F)F)cc3)n2)CCC1 [Compound 169, 1-((5-(2-((4-(Trifluoromethyl)phenyl)amino)phenyl)-2H-tetrazol-2-yl)methyl)cyclobutanol]	< 0.1
OCCn1nnc(-c2ccccc2Nc2ccc(F)cc2F)n1 [Compound 28, 2-(5-(2-((2,4-difluorophenyl)amino)phenyl)-2H-tetrazol-2-yl)ethan-1-ol]	0.1 to 1
NCCn1cnc(-c2ccccc2Nc2ccc(C(F)(F)F)cc2)n1 [Compound 230, 2-(1-(2-aminoethyl)-1H-1,2,4-triazol-3-yl)-N-(4-(trifluoromethyl)phenyl)aniline]	0.1 to 1
CCOC(=O)Cn1cnc(-c2ccccc2Nc2ccc(C(F)(F)F)cc2)c1 [Compound 202, ethyl 2-(4-(2-((4-(trifluoromethyl)phenyl)amino)phenyl)-1H-imidazol-1-yl)acetate]	0.1 to 1
OCCn1nnc(-c2ccccc2Nc2cccc(OC(F)(F)F)c2)n1 [Compound 24, 2-(5-(2-((3-(Trifluoromethoxy)phenyl)amino)phenyl)-2H-tetrazol-2-yl)ethanol]	0.1 to 1
